Among the data in US9624229B2, “Pyrimidine-2-amine compounds and their use as inhibitors of JAK kinases” (Rigel Pharmaceuticals, Inc., priority 2008, dated 2017) are GI50 values, retold here.

A value given as a limit tells only on which side of the number the result lay.

Chain of Ba/F3 V617F cells (O60674 whole entry V617F): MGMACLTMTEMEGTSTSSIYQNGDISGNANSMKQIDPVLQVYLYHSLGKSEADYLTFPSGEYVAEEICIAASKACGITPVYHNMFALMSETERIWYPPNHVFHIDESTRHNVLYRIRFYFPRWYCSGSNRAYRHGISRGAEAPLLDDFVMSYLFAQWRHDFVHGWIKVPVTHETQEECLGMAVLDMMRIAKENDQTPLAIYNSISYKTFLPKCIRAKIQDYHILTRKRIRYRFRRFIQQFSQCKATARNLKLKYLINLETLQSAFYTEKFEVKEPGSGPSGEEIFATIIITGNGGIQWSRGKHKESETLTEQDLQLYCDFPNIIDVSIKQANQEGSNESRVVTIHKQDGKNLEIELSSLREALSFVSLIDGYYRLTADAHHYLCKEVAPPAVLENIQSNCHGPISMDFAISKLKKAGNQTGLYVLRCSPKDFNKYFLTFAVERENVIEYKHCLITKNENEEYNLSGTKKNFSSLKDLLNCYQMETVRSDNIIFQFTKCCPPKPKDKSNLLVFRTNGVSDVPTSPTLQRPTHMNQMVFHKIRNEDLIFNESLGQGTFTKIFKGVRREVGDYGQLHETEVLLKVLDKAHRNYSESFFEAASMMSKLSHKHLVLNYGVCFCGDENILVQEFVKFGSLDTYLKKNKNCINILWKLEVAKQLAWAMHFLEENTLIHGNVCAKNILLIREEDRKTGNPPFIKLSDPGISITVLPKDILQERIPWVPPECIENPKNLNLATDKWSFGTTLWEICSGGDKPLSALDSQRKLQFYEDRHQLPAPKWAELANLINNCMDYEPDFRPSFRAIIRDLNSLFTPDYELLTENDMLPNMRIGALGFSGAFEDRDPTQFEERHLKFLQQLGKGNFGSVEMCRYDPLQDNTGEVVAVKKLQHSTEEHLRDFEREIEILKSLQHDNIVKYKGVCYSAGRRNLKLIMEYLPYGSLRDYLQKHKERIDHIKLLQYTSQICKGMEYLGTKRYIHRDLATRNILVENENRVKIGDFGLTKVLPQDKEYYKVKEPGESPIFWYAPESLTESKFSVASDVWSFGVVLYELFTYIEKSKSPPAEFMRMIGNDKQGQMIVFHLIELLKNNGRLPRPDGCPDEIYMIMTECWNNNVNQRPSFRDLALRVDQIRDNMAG

One assay concerns the target Ba/F3 V617F cells (Homo sapiens, UniProt O60674, V617F, cells depend on it). The experiment in a line: Proliferation assay (Cell Titer-Glo, 72 h) utilizing Ba/F3 V617F cells. The format is cell-based, mouse. As to conditions: Ba/F3 V617F cells, proliferation, level of activity given as class symbol, read-out: IC50 (the source's name). In outline:
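Readout is CellTiter-Glo luminescence after 72 h at 37 °C, giving IC50. Cells: Ba/F3 V617F, 1×10^5 cells/mL in RPMI with 10% FBS, treated in duplicate with 3-fold dilution series made from 5 mM DMSO stock, 1:250 in 5% FBS medium, added at 2×.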
A general note: ATP-based viability assays read luminescence as a measure of living cells.
Consider `CCCNc1ccc(-c2ccnc(Nc3ccc(N4C[C@@H]5C[C@H]4CO5)c(C)c3)n2)cn1` [compound 202, 4-(6-(propylamino)pyridin-3-yl)-N-(3-methyl-4-((1S,4S)-5-oxa-2-azabicyclo[2.2.1]heptan-2-yl)phenyl)pyrimidin-2-amine], for which the GI50 is less than 1000 nM.
As to `Cc1cc(Nc2nccc(-c3cnc4[nH]c5c(c4c3)CCCC5)n2)ccc1N1C[C@@H]2C[C@H]1CN2C` [compound 267, 4-(6,7,8,9-tetrahydro-5H-pyrido[2,3-b]indol-3-yl)-N-(3-methyl-4-((1S,4S)-5-methyl-2,5-diazabicyclo[2.2.1]heptan-2-yl)phenyl)pyrimidin-2-amine], the GI50 lay in the range of 1000 to 10000 nM.
As to `Cc1cc(Nc2nccc(-c3cnc4c(c3)OCC(=O)N4)n2)ccc1N1C[C@@H]2C[C@H]1CN2C` [compound 209, 4-(3-oxo-3,4-dihydro-2H-pyrido[3,2-b][1,4]oxazin-7-yl)-N-(3-methyl-4-((1S,4S)-5-methyl-2,5-diazabicyclo[2.2.1]heptan-2-yl)phenyl)pyrimidin-2-amine], the GI50 is less than 1000 nM.
Take `Cc1cc(Nc2nccc(-c3ccc4c(c3)OC(C)(C)C(=O)N4)n2)ccc1N1CCN2C(C1)[C@H]1CC[C@@H]2C1` (stereo partly drawn) [compound 244, 4-(2,2-dimethyl-3-oxo-3,4-dihydro-2H-benzo[b][1,4]oxazin-7-yl)-N-(3-methyl-4-((6R,9S)-6,9-methanooctahydro-1H-pyrido[1,2-a]pyrazin-2-yl)phenyl)pyrimidin-2-amine]: the GI50 is less than 1000 nM.
The same measure, in the same setting: the same measure for `Cc1cc(Nc2nccc(-c3ccc(N4C[C@@H]5C[C@H]4CO5)nc3)n2)ccc1N1C[C@@H]2C[C@H]1CO2` [compound 216, 4-(6-((1S,4S)-5-oxa-2-azabicyclo[2.2.1]heptan-2-yl)pyridin-3-yl)-N-(3-methyl-4-((1S,4S)-5-oxa-2-azabicyclo[2.2.1]heptan-2-yl)phenyl)pyrimidin-2-amine]: less than 1000 nM; for `Cc1cc(Nc2nccc(-c3ccc(NCCCN(C)C)nc3)n2)ccc1N1CC2(C)CN(C)CC(C)(C1)C2` [compound 214, 4-(6-(3-dimethylamino)propylaminopyridin-3-yl)-N-(3-methyl-4-(1,5,7-trimethyl-3,7-diazabicyclo[3.3.1]nonan-3-yl)phenyl)pyrimidin-2-amine]: 1000 to 10000 nM.
`Cc1cc(Nc2nccc(-c3ccc(N4CCOCC4)nc3)n2)ccc1N1CCN2C(C1)[C@H]1CC[C@@H]2C1` (stereo partly drawn) [compound 245, 4-(6-(morpholin-4-yl)pyridin-3-yl)-N-(3-methyl-4-((6R,9S)-6,9-methanooctahydro-1H-pyrido[1,2-a]pyrazin-2-yl)phenyl)pyrimidin-2-amine]: the GI50 is less than 1000 nM.
Still for that read-out and setting: the same measure for `CS(=O)(=O)N1C[C@@H]2C[C@H]1CN2c1ccc(Nc2nccc(-c3ccc(OC4CCOCC4)nc3)n2)cc1Cl` [compound 258, 4-(6-(tetrahydropyran-4-yloxy)pyridin-3-yl)-N-(3-chloro-4-((1S,4S)-5-(methylsulfonyl)-2,5-diazabicyclo[2.2.1]heptan-2-yl)phenyl)pyrimidin-2-amine]: 1000 to 10000 nM.
The same measure, in the same setting: to `Cc1cc(Nc2nccc(-c3ccnc(C(F)(F)F)c3)n2)ccc1N1C[C@@H]2C[C@H]1CN2C` [compound 256, 4-(2-(trifluoromethyl)pyridin-4-yl)-N-(3-methyl-4-((1S,4S)-5-methyl-2,5-diazabicyclo[2.2.1]heptan-2-yl)phenyl)pyrimidin-2-amine] belongs less than 1000 nM.

Staying with this assay, now noted: Ba/F3 V617F cells, proliferation, level of activity to inhibit JAK2, read-out: IC50 (the source's name).
As for `Cc1cc(Nc2nccc(-c3cnc4[nH]ccc4c3)n2)ccc1N1C[C@@H]2C[C@H]1CN2CC(F)(F)F` [compound 34, 4-(1H-pyrrolo[2,3-b]pyridin-5-yl)-N-(3-methyl-4-((1S,4S)-5-(2,2,2-trifluoroethyl)-2,5-diazabicyclo[2.2.1]heptan-2-yl)phenyl)pyrimidin-2-amine], the GI50 is less than 1000 nM.
The same measure, in the same setting: the same measure for `CN1C2CCC1CN(c1ccc(Nc3nccc(-c4ccc(NS(C)(=O)=O)nc4)n3)cc1)C2` [compound 156, 4-(6-(methylsulfonylamino)pyridin-3-yl)-N-(4-(8-methyl-3,8-diazabicyclo[3.2.1]octan-3-yl)phenyl)pyrimidin-2-amine]: 1000 to 10000 nM.
On the same count and under the same terms, to `CN1C[C@@H]2C[C@H]1CN2c1ccc(Nc2nccc(-c3ccc4c(c3)NC(=O)CO4)n2)cc1F` [compound 124, 4-(2H-benzo[b][1,4]oxazin-3(4H)-on-6-yl)-N-(3-fluoro-4-((1S,4S)-5-methyl-2,5-diazabicyclo[2.2.1]heptan-2-yl)phenyl)pyrimidin-2-amine] belongs less than 1000 nM.
The same measure, in the same setting: to `CN1C2CCC1CN(c1ccc(Nc3nccc(-c4ccc(N5CCOCC5)nc4)n3)cc1)C2` [compound 155, 4-(6-(morpholin-4-yl)pyridin-3-yl)-N-(4-(8-methyl-3,8-diazabicyclo[3.2.1]octan-3-yl)phenyl)pyrimidin-2-amine] belongs less than 1000 nM; to `Cc1cc(Nc2nccc(-c3cncc(C(=O)N4CCOCC4)c3)n2)ccc1N1C[C@@H]2C[C@H]1CN2C` [compound 52, 4-(5-((morpholin-4-yl)carbonyl)pyridin-3-yl)-N-(3-methyl-4-((1S,4S)-5-methyl-2,5-diazabicyclo[2.2.1]heptan-2-yl)phenyl)pyrimidin-2-amine], less than 1000 nM.
In the case of `Cc1cc(Nc2nccc(-c3cnc4c(c3)OC(C)(C)C(=O)N4)n2)ccc1N1CC2CCC(C1)N2C` [compound 165, 4-(2,2-dimethyl-3-oxo-3,4-dihydro-2H-pyrido[3,2-b][1,4]oxazin-7-yl)-N-(3-methyl-4-(8-methyl-3,8-diazabicyclo[3.2.1]octan-3-yl)phenyl)pyrimidin-2-amine], the GI50 was less than 1000 nM.
Turning to `CN1C[C@@H]2C[C@H]1CN2c1ccc(Nc2nccc(-c3ccc(N4CCOCC4)nc3)n2)cc1` [compound 184, 4-(6-(morpholin-4-yl)pyridin-3-yl)-N-(4-((1S,4S)-5-methyl-2,5-diazabicyclo[2.2.1]heptan-2-yl)phenyl)pyrimidin-2-amine], the GI50 is less than 1000 nM.
Still for that read-out and setting: the same measure for `CC(=O)Nc1ccc(-c2ccnc(Nc3ccc(N4CC5CCC(C4)N5C)cc3)n2)cc1` [compound 162, 4-(4-(acetamido)phenyl)-N-(4-(8-methyl-3,8-diazabicyclo[3.2.1]octan-3-yl)phenyl)pyrimidin-2-amine]: less than 1000 nM; for `Cc1cc(Nc2nccc(-c3cnc4[nH]ccc4c3)n2)ccc1N1C[C@@H]2C[C@H]1CN2C` [compound 22, 4-(1H-pyrrolo[2,3-b]pyridin-5-yl)-N-(3-methyl-4-((1S,4S)-5-methyl-2,5-diazabicyclo[2.2.1]heptan-2-yl)phenyl)pyrimidin-2-amine]: less than 1000 nM.
On the same count and under the same terms, to `CN1C[C@@H]2C[C@H]1CN2c1ccc(Nc2nccc(-c3ccc(N4CCOCC4)nc3)n2)cc1C#N` [compound 118, 4-(6-(morpholin-4-yl)pyridin-3-yl)-N-(3-cyano-4-((1S,4S)-5-methyl-2,5-diazabicyclo[2.2.1]heptan-2-yl)phenyl)pyrimidin-2-amine] belongs less than 1000 nM.
Same read-out and setting: the same measure for `Cc1cc(Nc2nccc(-c3ccc(NC4CCCCC4)nc3)n2)ccc1N1C[C@@H]2C[C@H]1CN2C` [compound 78, 4-(6-(cyclohexylamino)pyridin-3-yl)-N-(3-methyl-4-((1S,4S)-5-methyl-2,5-diazabicyclo[2.2.1]heptan-2-yl)phenyl)pyrimidin-2-amine]: less than 1000 nM; for `Cc1cc(Nc2nccc(-c3cnn(-c4cccc(Cl)c4)c3)n2)ccc1N1C[C@@H]2C[C@H]1CN2C` [compound 106, 4-(1-(3-chlorophenyl)-1H-pyrazol-4-yl)-N-(3-methyl-4-((1S,4S)-5-methyl-2,5-diazabicyclo[2.2.1]heptan-2-yl)phenyl)pyrimidin-2-amine]: 1000 to 10000 nM; for `Cc1cc(Nc2nccc(-c3ccc(CC(=O)NC4CC4)cc3)n2)ccc1N1C[C@@H]2C[C@H]1CN2C` [compound 49, 4-(4-((cyclopropyl)aminocarbonyl-methyl)phenyl)-N-(3-methyl-4-((1S,4S)-5-methyl-2,5-diazabicyclo[2.2.1]heptan-2-yl)phenyl)pyrimidin-2-amine]: 1000 to 10000 nM.
Turning to `Cc1cc(Nc2nccc(-c3ccc4c(c3)CC(=O)N4)n2)ccc1N1C[C@@H]2C[C@H]1CN2C` [compound 113, 4-(2-oxoindolin-5-yl)-N-(3-methyl-4((1S,4S)-5-methyl-2,5-diazabicyclo[2.2.1]heptan-2-yl)phenyl)pyrimidin-2-amine], the GI50 is less than 1000 nM.
The same measure, in the same setting: the same measure for `CCC(=O)N1C[C@@H]2C[C@H]1CN2c1ccc(Nc2nccc(-c3cnc4c(c3)OC(C)(C)C(=O)N4)n2)cc1C` [compound 28, 4-(2,2-dimethyl-3-oxo-3,4-dihydro-2H-pyrido[3,2-b][1,4]oxazin-7-yl)-N-(3-methyl-4-((1S,4S)-5-(ethylcarbonyl)-2,5-diazabicyclo[2.2.1]heptan-2-yl)phenyl)pyrimidin-2-amine]: less than 1000 nM; for `CN1C[C@@H]2C[C@H]1CN2c1ccc(Nc2nccc(-c3cnc(N4CCOCC4)cn3)n2)cc1F` [compound 179, 4-(5-(morpholin-4-yl)pyrazin-2-yl)-N-(3-fluoro-4-((1S,4S)-5-methyl-2,5-diazabicyclo[2.2.1]heptan-2-yl)phenyl)pyrimidin-2-amine]: 1000 to 10000 nM.

Staying with this assay, now noted: inhibition of JAK2 activity, proliferation of Ba/F3 V617F cells, read-out: IC50 (the source's name).
Consider `CC(=O)Nc1ccc(-c2ccnc(Nc3ccc(N4C[C@@H]5C[C@H]4CN5C)nc3)n2)cn1` [compound 55, 4-(6-(methylcarbonylamino)pyridin-3-yl)-N-(6-((1S,4S)-5-methyl-2,5-diazabicyclo[2.2.1]heptan-2-yl)pyridin-3-yl)pyrimidin-2-amine], for which the GI50 lay in the range of 1000 to 10000 nM.
The same measure, in the same setting: to `Cc1cc(Nc2nccc(-c3ccc(NC(=O)NC4CC4)cc3)n2)cnc1N1C[C@@H]2C[C@H]1CN2C` [compound 140, 4-(4-(3-cyclopropylureido)phenyl)-N-(5-methyl-6-((1S,4S)-5-methyl-2,5-diazabicyclo[2.2.1]heptan-2-yl)pyridin-3-yl)pyrimidin-2-amine] belongs 1000 to 10000 nM.
